# Laboratory results reported in ChEMBL document CHEMBL4819141, “Ruthenium(II)- and Palladium(II)-catalyzed position-divergent CH oxygenations of arylated quinones: Identification of hydroxylated quinonoid compounds with potent trypanocidal activity” (Bioorg Med Chem, 2021).
# How the values were obtained:
# [1] = system: Trypanosoma cruzi; assay: (§1) Trypanocidal activity against Trypanosoma cruzi Y strain bloodstream trypomastigotes isolated from infected in Albino Swiss mouse assessed as lysis of parasite in presence of 5 % mouse blood incubated for 24 hrs by Neubauer chamber method; type: functional, organism-based
# [2] = system: Trypanosoma cruzi; assay: as §1, with “Potency index, ratio of benznidazole IC50 to test compound IC50 for trypanocidal” for “Trypanocidal”; type: functional
SMILES,IC50 [1],Ratio IC50 [2]
O=C1C=C(c2ccccc2)C(=O)c2ccccc21,96.8 µM,–
O=C1C(c2ccccc2)=CC(=O)c2c(O)cccc21,115 µM,–
Cc1ccc(C2=CC(=O)c3ccccc3C2=O)cc1,185 µM,–
O=C1C=C(c2ccc(F)cc2)C(=O)c2ccccc21,> 500 µM,–
O=C1C=C(c2ccc(Cl)cc2)C(=O)c2ccccc21,> 1000 µM,–
O=C1C=C(c2ccc(C(F)(F)F)cc2)C(=O)c2ccccc21,335 µM,–
Cc1cc(C)cc(C2=CC(=O)c3ccccc3C2=O)c1,> 500 µM,–
O=C1C(c2cccc(I)c2)=CC(=O)c2c(O)cccc21,35.1 µM,–
O=C1C=C(c2ccccc2O)C(=O)c2ccccc21,163 µM,–
O=C1C=C(c2ccc(I)cc2)C(=O)c2ccccc21,> 500 µM,–
O=C1C=C(c2ccccc2F)C(=O)c2ccccc21,157 µM,–
O=C1C(c2ccc(F)cc2)=CC(=O)c2c(O)cccc21,71.5 µM,–
Cc1ccc(C2=CC(=O)c3ccccc3C2=O)c(O)c1,72.6 µM,2.5
O=C1C(c2ccc(Cl)cc2)=CC(=O)c2c(O)cccc21,> 1000 µM,–
Cc1cccc(C2=CC(=O)c3c(O)cccc3C2=O)c1,95.4 µM,–
Cc1cccc(C2=CC(=O)c3ccccc3C2=O)c1,105 µM,–
O=C1C(c2ccc(C(F)(F)F)cc2)=CC(=O)c2c(O)cccc21,22.8 µM,4.5
COc1ccc(C2=CC(=O)c3ccccc3C2=O)cc1,303 µM,–
Cc1cc(C)cc(C2=CC(=O)c3c(O)cccc3C2=O)c1,> 500 µM,–
O=C1C(c2ccc(I)cc2)=CC(=O)c2c(O)cccc21,> 500 µM,–
Cc1ccc(C2=CC(=O)c3c(O)cccc3C2=O)cc1,156 µM,–
Cc1ccc(C)c(C2=CC(=O)c3ccccc3C2=O)c1,56.5 µM,2
Cc1ccc(O)c(C2=CC(=O)c3ccccc3C2=O)c1,99.2 µM,–
CC(C)(C)c1ccc(C2=CC(=O)c3ccccc3C2=O)cc1,25.7 µM,4
O=C1C=C(c2cccc(I)c2)C(=O)c2ccccc21,304 µM,–
